US11613542B2, “Sulfonylureas and sulfonylthioureas as NLRP3 inhibitors” (Inflazome Limited, priority 2017, dated 2023)
Counter-ions that a name gives are not always drawn.

target: NLRP3 (Homo sapiens, UniProt Q96P20); test: THP-1 cells pyroptosis assay; assay type: cell-based; design: Seed THP-1 cells (25,000 cells/well) containing 1.0 μg/ml LPS; host or cells: THP-1 cells, LPS-primed, nigericin-stimulated; details: THP-1 cells, 1.0 μg/ml LPS, compound 3 hrs, nigericin 5 μM 1 hr, resazurin readout; read-out: THP IC50
Description: NLRP and Pyroptosis It is well established that the activation of NLRP3 leads to cell pyroptosis and this feature plays an important part in the manifestation of clinical disease (Yan-gang Liu et al., Cell Death &Disease, 2017, 8(2), e2579; Alexander Wree et al., Hepatology, 2014, 59(3), 898-910; Alex Baldwin et al., Journal of Medicinal Chemistry, 2016, 59(5), 1691-171; Ema Ozaki et al., Journal of Inflammation Research, 2015, 8, 15-27; Zhen Xie & Gang Zhao, Neuroimmunology Neuroinflammation, 2014, 1(2), 60-65; Mattia Cocco et al., Journal of Medicinal Chemistry, 2014, 57(24), 10366-10382; T. Satoh et al., Cell Death &Disease, 2013, 4, e644). Therefore, it is anticipated that inhibitors of NLRP3 will block pyroptosis, as well as the release of pro-inflammatory cytokines (e.g. […]) from the cell. THP-1 Cells: Culture and Preparation THP-1 cells (ATCC #TIB-202) were grown in RPMI containing L-glutamine (Gibco #11835) supplemented with imM sodium pyruvate (Sigma #S8636) and penicillin (100 units/ml)/streptomycin (0.1 mg/ml) (Sigma #P4333) in 10% Fetal Bovine Serum (FBS) (Sigma #Fo804). The cells were routinely passaged and grown to confluency (˜10^6 cells/ml). On the day of the experiment, THP-1 cells were harvested and resuspended into RPMI medium (without FBS). The cells were then counted and viability (>90%) checked by Trypan blue (Sigma #T8154). Appropriate dilutions were made to give a concentration of 625,000 cells/ml. To this diluted cell solution was added LPS (Sigma #L4524) to give a […] Final Assay Concentration (FAC). 40 μl of the final preparation was aliquoted into each well of a 96-well plate. The plate thus prepared was used for compound screening. THP-1 Cells Pyroptosis Assay The following method step-by-step assay was followed for compound screening. • 1. Seed THP-1 cells (25,000 cells/well) containing 1.0 μg/ml LPS in 40 μl of RPMI medium (without FBS) in 96-well, black walled, clear bottom cell culture plates coated with poly-D-lysine (VWR #734-0317) • 2. Add […] compound (8 points half-log dilution, with 10 μM top dose) or vehicle (DMSO 0.1% FAC) to the appropriate wells • 3. […] Add 5 μl nigericin (Sigma #N7143) (FAC 5 μM) to all wells • 5. […] At the end of the incubation period, spin plates at 300 xg for 3 mins and remove supernatant • 7. Then add 50 μl of resazurin (Sigma #R7017) (FAC 100μ M resazurin in RPMI medium without FBS) and incubate plates for a further 1-2 hrs at 37° C. and 5% CO2 • 8. Plates were read in an Envision reader at Ex 560 nm and Em 590 nm • 9. IC50 data is fitted to a non-linear regression equation (log inhibitor vs response-variable slope 4-parameters) [table]

Chain of NLRP3 (Q96P20 whole entry): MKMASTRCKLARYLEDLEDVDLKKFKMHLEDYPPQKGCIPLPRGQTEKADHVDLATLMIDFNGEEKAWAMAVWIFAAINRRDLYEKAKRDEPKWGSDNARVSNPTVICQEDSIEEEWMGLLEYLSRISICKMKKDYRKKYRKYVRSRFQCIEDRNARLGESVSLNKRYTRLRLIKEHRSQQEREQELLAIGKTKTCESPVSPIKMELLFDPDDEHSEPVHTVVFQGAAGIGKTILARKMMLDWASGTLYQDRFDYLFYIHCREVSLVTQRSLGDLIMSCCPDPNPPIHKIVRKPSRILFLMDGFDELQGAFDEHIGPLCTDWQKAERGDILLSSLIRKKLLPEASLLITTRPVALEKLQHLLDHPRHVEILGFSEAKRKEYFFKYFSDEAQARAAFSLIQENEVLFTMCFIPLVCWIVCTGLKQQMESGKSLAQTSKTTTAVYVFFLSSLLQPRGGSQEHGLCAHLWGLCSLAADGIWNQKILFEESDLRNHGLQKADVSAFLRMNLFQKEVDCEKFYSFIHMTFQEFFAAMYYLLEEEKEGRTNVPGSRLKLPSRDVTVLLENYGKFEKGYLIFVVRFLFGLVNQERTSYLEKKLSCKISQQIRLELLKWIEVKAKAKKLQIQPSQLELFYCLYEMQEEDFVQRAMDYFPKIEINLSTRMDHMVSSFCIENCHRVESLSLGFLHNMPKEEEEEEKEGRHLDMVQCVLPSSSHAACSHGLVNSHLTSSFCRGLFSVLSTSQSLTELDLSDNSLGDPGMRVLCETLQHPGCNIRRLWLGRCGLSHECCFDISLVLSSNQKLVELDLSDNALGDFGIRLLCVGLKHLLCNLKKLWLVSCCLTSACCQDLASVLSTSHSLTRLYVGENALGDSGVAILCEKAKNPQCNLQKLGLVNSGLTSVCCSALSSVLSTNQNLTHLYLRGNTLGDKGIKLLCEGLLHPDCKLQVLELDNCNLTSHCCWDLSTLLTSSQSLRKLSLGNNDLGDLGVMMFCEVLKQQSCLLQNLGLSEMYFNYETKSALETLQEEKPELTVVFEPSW

Compound	IC50
O=C(Nc1c2c(cc3c1CCC3)CCC2)NS(=O)(=O)c1ccn(Cc2ncccn2)n1 [Example 22, N-((1,2,3,5,6,7-Hexahydro-s-indacen-4-yl)carbamoyl)-1-(pyrimidin-2-ylmethyl)-1H-pyrazole-3-sulfonamide]	< 2560 nM
CN1CCC(n2ccc(S(=O)(=O)NC(=O)Nc3c4c(cc5c3CCC5)CCC4)n2)CC1 [Example 31, N-((1,2,3,5,6,7-Hexahydro-s-indacen-4-yl)carbamoyl)-1-(1-methylpiperidin-4-yl)-1H-pyrazole-3-sulfonamide]	< 2560 nM
CN(C)CCCn1ccc(S(=O)(=O)NC(=O)Nc2c3c(cc4c2CCC4)CCC3)n1 [Example 32, 1-(3-(Dimethylamino)propyl)-N-((1,2,3,5,6,7-hexahydro-s-indacen-4-yl)carbamoyl)-1H-pyrazole-3-sulfonamide]	< 2560 nM
O=C(Nc1c2c(cc3c1CCC3)CCC2)NS(=O)(=O)c1ccn(-c2ccccn2)n1 [Example 119, N-((1,2,3,5,6,7-Hexahydro-s-indacen-4-yl)carbamoyl)-1-(pyridin-2-yl)-1H-pyrazole-3-sulfonamide, sodium salt]	< 2560 nM
O=C(Nc1c2c(cc3c1CCC3)CCC2)NS(=O)(=O)c1ccn(-c2nccs2)n1 [Example 120, N-((1,2,3,5,6,7-Hexahydro-s-indacen-4-yl)carbamoyl)-1-(thiazol-2-yl)-1H-pyrazole-3-sulfonamide, sodium salt]	< 2560 nM
O=C(Nc1c2c(cc3c1CCC3)CCC2)NS(=O)(=O)c1ccn(-c2cccnc2)n1 [Example 121, N-((1,2,3,5,6,7-Hexahydro-s-indacen-4-yl)carbamoyl)-1-(pyridin-3-yl)-1H-pyrazole-3-sulfonamide]	< 2560 nM
CC(C)c1cc(F)cc(C(C)C)c1NC(=O)NS(=O)(=O)c1cc(CN(C)CCO)n(C)n1 [Example 123, N-((4-Fluoro-2,6-diisopropylphenyl)carbamoyl)-5-(((2-hydroxyethyl)(methyl)amino)methyl)-1-methyl-1H-pyrazole-3-sulfonamide]	< 640 nM
COCCN(C)Cc1cc(S(=O)(=O)NC(=O)Nc2c(C(C)C)cc(F)cc2C(C)C)nn1C [Example 125, N-((4-Fluoro-2,6-diisopropylphenyl)carbamoyl)-5-(((2-methoxyethyl)(methyl)amino)methyl)-1-methyl-1H-pyrazole-3-sulfonamide, sodium salt]	< 2560 nM
CC(C)c1cc(Cl)cc(C(C)C)c1NC(=O)NS(=O)(=O)c1cc(CN2CCOCC2)n(C)n1 [Example 127, N-((4-Chloro-2,6-diisopropylphenyl)carbamoyl)-1-methyl-5-(morpholinomethyl)-1H-pyrazole-3-sulfonamide, sodium salt]	< 2560 nM
Cn1nc(S(=O)(=O)NC(=O)Nc2c3c(cc4c2CCC4)CCC3)cc1CN1CCOCC1 [Example 128, N-((1,2,3,5,6,7-Hexahydro-s-indacen-4-yl)carbamoyl)-1-methyl-5-(morpholinomethyl)-1H-pyrazole-3-sulfonamide]	< 2560 nM
CC(C)c1cc(F)cc(C(C)C)c1NC(=O)NS(=O)(=O)c1cc(C(=O)N2CCC2)n(C(C)C)n1 [Example 130, 5-(azetidine-1-carbonyl)-N-((4-fluoro-2,6-diisopropylphenyl)carbamoyl)-1-isopropyl-1H-pyrazole-3-sulfonamide]	< 640 nM
CC(C)c1ccc(-c2cncnc2)cc1NC(=O)NS(=O)(=O)c1cc(C(=O)N(C)C)n(C)n1 [Example 134, 3-(N-((2-Isopropyl-5-(pyrimidin-5-yl)phenyl)carbamoyl)sulfamoyl)-N,N,1-trimethyl-1H-pyrazole-5-carboxamide, sodium salt]	< 2560 nM
CC(C)c1ccc(-c2cnn(C)c2)cc1NC(=O)NS(=O)(=O)c1cc(C(=O)N(C)C)n(C)n1 [Example 136, 3-(N-((2-Isopropyl-5-(1-methyl-1H-pyrazol-4-yl)phenyl)carbamoyl)sulfamoyl)-N,N,1-trimethyl-1H-pyrazole-5-carboxamide, sodium salt]	< 2560 nM
CC(C)NC(=O)c1cc(S(=O)(=O)NC(=O)Nc2c(C(C)C)cccc2C(C)C)nn1C [Example 138, 3-(N-((2,6-Diisopropylphenyl)carbamoyl)sulfamoyl)-N-isopropyl-1-methyl-1H-pyrazole-5-carboxamide]	< 10000 nM

Next, values leading:

IC50	Compound
< 10000 nM	CC(C)c1cccc(C(C)C)c1NC(=O)NS(=O)(=O)c1cc(C(=O)N(C)CC#N)n(C)n1 [Example 140, N-(Cyanomethyl)-3-(N-((2,6-diisopropylphenyl)carbamoyl)sulfamoyl)-N,1-dimethyl-1H-pyrazole-5-carboxamide]
< 10000 nM	CC(C)NC(=O)c1cc(S(=O)(=O)NC(=O)Nc2c3c(cc4c2CCC4)CCC3)nn1C [Example 146, 3-(N-((1,2,3,5,6,7-Hexahydro-s-indacen-4-yl)carbamoyl)sulfamoyl)-N-isopropyl-1-methyl-1H-pyrazole-5-carboxamide]
< 640 nM	CCN(CC)C(=O)c1cc(S(=O)(=O)NC(=O)Nc2c(C(C)C)cc(F)cc2C(C)C)nn1C [Example 148, N,N-Diethyl-3-(N-((4-fluoro-2,6-diisopropylphenyl)carbamoyl)sulfamoyl)-1-methyl-1H-pyrazole-5-carboxamide, sodium salt]
< 2560 nM	CCN(CC)C(=O)c1cc(S(=O)(=O)NC(=O)Nc2c(C(C)C)cccc2C(C)C)nn1C [Example 157, 3-(N-((2,6-Diisopropylphenyl)carbamoyl)sulfamoyl)-N,N-diethyl-1-methyl-1H-pyrazole-5-carboxamide]
< 2560 nM	Cn1nc(S(=O)(=O)NC(=O)Nc2c3c(cc4c2CCC4)CCC3)cc1C(=O)N1CCCC1 [Example 159, N-((1,2,3,5,6,7-Hexahydro-s-indacen-4-yl)carbamoyl)-1-methyl-5-(pyrrolidine-1-carbonyl)-1H-pyrazole-3-sulfonamide]
< 2560 nM	Cn1nc(S(=O)(=O)NC(=O)Nc2c3c(cc4c2CCC4)CCC3)cc1C(=O)N1CC(F)C1 [Example 161, 5-(3-Fluoroazetidine-1-carbonyl)-N-((1,2,3,5,6,7-hexahydro-s-indacen-4-yl)carbamoyl)-1-methyl-1H-pyrazole-3-sulfonamide, partial ammonium salt]
< 2560 nM	CC(C)c1cccc(C(C)C)c1NC(=O)NS(=O)(=O)c1cc(C(=O)N2CCCC2)n(C)n1 [Example 163, N-((2,6-Diisopropylphenyl)carbamoyl)-1-methyl-5-(pyrrolidine-1-carbonyl)-1H-pyrazole-3-sulfonamide]
< 2560 nM	CNC(=O)c1cc(S(=O)(=O)NC(=O)Nc2c3c(cc4c2CCC4)CCC3)nn1C [Example 166, 3-(N-((1,2,3,5,6,7-Hexahydro-s-indacen-4-yl)carbamoyl)sulfamoyl)-N,1-dimethyl-1H-pyrazole-5-carboxamide]
< 2560 nM	CC(C)c1cccc(C(C)C)c1NC(=O)NS(=O)(=O)c1cc(C(=O)N(C)CCO)n(C)n1 [Example 173, 3-(N-((2,6-Diisopropylphenyl)carbamoyl)sulfamoyl)-N-(2-hydroxyethyl)-N,1-dimethyl-1H-pyrazole-5-carboxamide]
< 10000 nM	Cn1nc(S(=O)(=O)NC(=O)Nc2c3c(cc4c2CCC4)CCC3)cc1C(=O)NCCO [Example 174, 3-(N-((1,2,3,5,6,7-Hexahydro-s-indacen-4-yl)carbamoyl)sulfamoyl)-N-(2-hydroxyethyl)-1-methyl-1H-pyrazole-5-carboxamide, partial ammonium salt]
